Reference: patent US6861260B2, “Lipid membrane, method for measuring membrane permeability, and method for screening” (Chugai Seiyaku Kabushiki Kaisha, priority 2000, dated 2005)
Where two headings read alike, the source gives them in different places. Marks after values point to notes of the source that are not given here.

Columns and labels:
[1] = Artificial lipid membrane permeability measurement (96-well filter plate, absorbance); assay type: in vitro ADME; parameters: Permeability coefficient (P), Example 2 / Permeability coefficient (P), Comparative Example 1: unit: cm/s; details: 0.5 mmol/L sample; for Papp at 0.5 mmol/L: PAMPA; for Permeability coefficient (P), Comparative Example 1: membrane of Comparative Example 1 (phosphatidylcholine, cholesterol and 1,9-decadiene 2:1:97)
[2] = literature data, References *1 to *4; cited from earlier work
[3] = membrane of Example 3 (phosphatidylcholine and 1,6-heptadiene 2:98), buffer pH 6.5 to pH 7.0, read-out: Permeability coefficient (P), Example 3
[4] = membrane of Example 4 (phosphatidylcholine and 1,7-octadiene 2:98), buffer pH 6.5 to pH 7.0, read-out: Permeability coefficient (P), Example 4
[5] = membrane of Example 5 (phosphatidylcholine and 1,8-nonadiene 2:98), buffer pH 6.5 to pH 7.0, read-out: Permeability coefficient (P), Example 5
[6] = membrane of Comparative Example 2 (phosphatidylcholine and 1,9-decadiene 2:98), buffer pH 6.5 to pH 7.0, read-out: Permeability coefficient (P), Comparative Example 2
[7] = membrane of Example 1 (phosphatidylcholine 2, cholesterol 1, stearic acid 0.2 %, w/w in 1,7-octadiene), pH 7.0, read-out: Permeability coefficient (P), Example 1
[8] = membrane of Example 2 (phosphatidylcholine 0.75, phosphatidylethanolamine 0.75, phosphatidylserine 0.25, phosphatidylinositol 0.25, cholesterol 1 %, w/w in 1,7-octadiene), pH 6.5, read-out: Permeability coefficient (P), Example 2
[9] = membrane of Example 2 (phosphatidylcholine 0.75, phosphatidylethanolamine 0.75, phosphatidylserine 0.25, phosphatidylinositol 0.25, cholesterol 1 %, w/w in 1,7-octadiene), pH 6.5

SMILES	Papp at 0.5 mmol/L [1, 3] [×10⁻⁶ cm/s]	Papp at 0.5 mmol/L [1, 4] [×10⁻⁶ cm/s]	Papp at 0.5 mmol/L [1, 5] [×10⁻⁶ cm/s]	Papp at 0.5 mmol/L [1, 6] [×10⁻⁶ cm/s]	Papp at 0.5 mmol/L [1, 7] [×10⁻⁶ cm/s]	Papp at 0.5 mmol/L [1, 8] [×10⁻⁶ cm/s]	Permeability coefficient (P), Comparative Example 1 ([1]; pH 6.5)	Permeability coefficient (P), Example 2 [1, 9]	Human intestinal absorption (Fa, %) [2]
NS(=O)(=O)c1cc2c(cc1Cl)NCNS2(=O)=O [Hydrochlorothiazide]	5.86	1.52	1.82	0.751	1.34	1.55	8.64E-07		
CO/N=C(\C(=O)N[C@@H]1C(=O)N2C(C(=O)O)=C(CSc3nc(=O)c(=O)[nH]n3C)CS[C@H]12)c1csc(N)n1 [Ceftriaxone]					1.37		1.66E-08	2.25E-07	1*^4%
N=C(N)NC(=O)c1nc(Cl)c(N)nc1N [Amiloride]					2.69		6.10E-08	6.73E-07	50*^3%
O=C1CC[C@@]2(O)[C@H]3Cc4ccc(O)c5c4[C@@]2(CCN3CC2CC2)[C@H]1O5 [Naltrexone]					11.2		9.61E-06	4.50E-06	
N=C(N)N/N=C/c1c(Cl)cccc1Cl [Guanabenz]					19.5		4.14E-06	1.04E-05	75*^1%
Nc1ccn([C@@H]2O[C@H](CO)[C@@H](O)[C@@H]2O)c(=O)n1 [Cytarabine]					0.889	0.0387	3.87E-08		
C[C@H]1c2cccc(O)c2C(=O)C2=C(O)[C@]3(O)C(=O)C(C(N)=O)=C(O)[C@@H](N(C)C)[C@@H]3[C@@H](O)[C@@H]21 [Doxycycline]					7.07		1.52E-06	2.35E-05	95*^3%
CCCC(=O)Nc1ccc(OCC(O)CNC(C)C)c(C(C)=O)c1 (stereo not shown) [Acebutolol]					4.45		1.91E-07	3.67E-06	90*^1%
NS(=O)(=O)c1cc2c(cc1Cl)N=CNS2(=O)=O [Chlorothiazide]					2.24		4.98E-08	2.71E-07	
CCOC(=O)[C@H](CCc1ccccc1)N[C@@H](C)C(=O)N1CCC[C@H]1C(=O)O [Enalapril]					0.802	1.37	1.09E-06		65*^3%
CO/N=C(\C(=O)N[C@@H]1C(=O)N2C(C(=O)O)=C(COC(N)=O)CS[C@H]12)c1ccco1 [Cefuroxime]					0.16	0.0443	2.76E-08		5*^1%
CC(=O)Nc1ccc(O)cc1 [Acetaminophen]					8.17		4.98E-08	1.79E-06	80*^1%

Further lines, with some results ahead:

Papp at 0.5 mmol/L [1, 3] [×10⁻⁶ cm/s]	Papp at 0.5 mmol/L [1, 4] [×10⁻⁶ cm/s]	Papp at 0.5 mmol/L [1, 5] [×10⁻⁶ cm/s]	Papp at 0.5 mmol/L [1, 6] [×10⁻⁶ cm/s]	Papp at 0.5 mmol/L [1, 7] [×10⁻⁶ cm/s]	Papp at 0.5 mmol/L [1, 8] [×10⁻⁶ cm/s]	Permeability coefficient (P), Comparative Example 1 ([1]; pH 6.5)	Permeability coefficient (P), Example 2 [1, 9]	SMILES	Human intestinal absorption (Fa, %) [2]
				9.42		7.49E-07	6.88E-06	COCCc1ccc(OCC(O)CNC(C)C)cc1 (stereo not shown) [Metoprolol]	
				9.13		1.05E-06	1.19E-05	CC(C)(C)NC[C@H](O)COc1nsnc1N1CCOCC1 [Timolol]	90*^1%
				1.01		4.36E-07	1.53E-06	CC(=O)Nc1ccc(OCC(O)CNC(C)C)cc1 (stereo not shown) [Practolol]	
				11		2.71E-08	7.94E-06	CC(C)NCC(O)COc1cccc2[nH]ccc12 (stereo not shown) [Pindolol]	90*^1%
				3.28		5.26E-07		CC(C)(C)NCC(O)COc1cccc2c1CC(O)C(O)C2 (stereo not shown) [Nadolol]	35*^1%
				2.69		7.21E-08	6.12E-07	CC[C@H](C)C(=O)O[C@H]1C[C@H](O)C=C2C=C[C@H](C)[C@H](CC[C@@H](O)C[C@@H](O)CC(=O)O)[C@H]21 [Pravastatin]	34*^1%
				3.24		3.12E-07	1.07E-06	O=C(O)c1cc(/N=N/c2ccc(S(=O)(=O)Nc3ccccn3)cc2)ccc1O [Sulfasalazine]	65*^1%
				1.22		1.34E-07	2.19E-06	CNC(=C[N+](=O)[O-])NCCSCc1ccc(CN(C)C)o1 [Ranitidine]	
43.8	21.5	24.6	12.5					CC(C)NCC(O)COc1cccc2ccccc12 (stereo not shown) [Propranolol]	
				3.31		8.31E-07	5.87E-06	CN(C)[C@@H]1C(O)=C(C(N)=O)C(=O)[C@@]2(O)C(O)=C3C(=O)c4c(O)cccc4[C@@](C)(O)[C@H]3[C@H](O)[C@@H]12 [Oxytetracycline]	60*^3%
				1.34		8.33E-08	2.23E-06	CCN1CCCC1CNC(=O)c1cc(S(N)(=O)=O)ccc1OC (stereo not shown) [Sulpiride]	
50.5	13.6	16.8	9.22					CC(C(=O)O)c1cccc(C(=O)c2ccccc2)c1 (stereo not shown) [Ketoprofen]	
